In patent publication US9932314B2, “Pyrazole compounds and their use as T-type calcium channel blockers” (IDORSIA PHARMACEUTICALS LTD, priority 2015, dated 2018):

Target: T1, voltage-dependent T-type calcium channel subunit alpha-1G (Cav3.2) (Homo sapiens, UniProt O95180)
T1 construct: expressed in transfected cells; host or cells: HEK293
Assay: FLIPR calcium flux assay, HEK293 cells recombinantly expressing Cav3.2
Type: cell-based
Details: Cav3.2-channel, Fluo-4-AM, 3 min incubation, stimulation with 10 mM CaCl2
Procedure, shortened: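 Calcium influx was triggered by adding CaCl2 to 10 mM final, 3 min after compounds in tetraethylammonium-based buffer, pH 7.2, reached Fluo-4-AM-loaded recombinant HEK293 cells. The integrated kinetic fluorescence signal per concentration gave concentration-response curves by non-linear sigmoidal regression.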

T1 sequence (O95180 whole entry): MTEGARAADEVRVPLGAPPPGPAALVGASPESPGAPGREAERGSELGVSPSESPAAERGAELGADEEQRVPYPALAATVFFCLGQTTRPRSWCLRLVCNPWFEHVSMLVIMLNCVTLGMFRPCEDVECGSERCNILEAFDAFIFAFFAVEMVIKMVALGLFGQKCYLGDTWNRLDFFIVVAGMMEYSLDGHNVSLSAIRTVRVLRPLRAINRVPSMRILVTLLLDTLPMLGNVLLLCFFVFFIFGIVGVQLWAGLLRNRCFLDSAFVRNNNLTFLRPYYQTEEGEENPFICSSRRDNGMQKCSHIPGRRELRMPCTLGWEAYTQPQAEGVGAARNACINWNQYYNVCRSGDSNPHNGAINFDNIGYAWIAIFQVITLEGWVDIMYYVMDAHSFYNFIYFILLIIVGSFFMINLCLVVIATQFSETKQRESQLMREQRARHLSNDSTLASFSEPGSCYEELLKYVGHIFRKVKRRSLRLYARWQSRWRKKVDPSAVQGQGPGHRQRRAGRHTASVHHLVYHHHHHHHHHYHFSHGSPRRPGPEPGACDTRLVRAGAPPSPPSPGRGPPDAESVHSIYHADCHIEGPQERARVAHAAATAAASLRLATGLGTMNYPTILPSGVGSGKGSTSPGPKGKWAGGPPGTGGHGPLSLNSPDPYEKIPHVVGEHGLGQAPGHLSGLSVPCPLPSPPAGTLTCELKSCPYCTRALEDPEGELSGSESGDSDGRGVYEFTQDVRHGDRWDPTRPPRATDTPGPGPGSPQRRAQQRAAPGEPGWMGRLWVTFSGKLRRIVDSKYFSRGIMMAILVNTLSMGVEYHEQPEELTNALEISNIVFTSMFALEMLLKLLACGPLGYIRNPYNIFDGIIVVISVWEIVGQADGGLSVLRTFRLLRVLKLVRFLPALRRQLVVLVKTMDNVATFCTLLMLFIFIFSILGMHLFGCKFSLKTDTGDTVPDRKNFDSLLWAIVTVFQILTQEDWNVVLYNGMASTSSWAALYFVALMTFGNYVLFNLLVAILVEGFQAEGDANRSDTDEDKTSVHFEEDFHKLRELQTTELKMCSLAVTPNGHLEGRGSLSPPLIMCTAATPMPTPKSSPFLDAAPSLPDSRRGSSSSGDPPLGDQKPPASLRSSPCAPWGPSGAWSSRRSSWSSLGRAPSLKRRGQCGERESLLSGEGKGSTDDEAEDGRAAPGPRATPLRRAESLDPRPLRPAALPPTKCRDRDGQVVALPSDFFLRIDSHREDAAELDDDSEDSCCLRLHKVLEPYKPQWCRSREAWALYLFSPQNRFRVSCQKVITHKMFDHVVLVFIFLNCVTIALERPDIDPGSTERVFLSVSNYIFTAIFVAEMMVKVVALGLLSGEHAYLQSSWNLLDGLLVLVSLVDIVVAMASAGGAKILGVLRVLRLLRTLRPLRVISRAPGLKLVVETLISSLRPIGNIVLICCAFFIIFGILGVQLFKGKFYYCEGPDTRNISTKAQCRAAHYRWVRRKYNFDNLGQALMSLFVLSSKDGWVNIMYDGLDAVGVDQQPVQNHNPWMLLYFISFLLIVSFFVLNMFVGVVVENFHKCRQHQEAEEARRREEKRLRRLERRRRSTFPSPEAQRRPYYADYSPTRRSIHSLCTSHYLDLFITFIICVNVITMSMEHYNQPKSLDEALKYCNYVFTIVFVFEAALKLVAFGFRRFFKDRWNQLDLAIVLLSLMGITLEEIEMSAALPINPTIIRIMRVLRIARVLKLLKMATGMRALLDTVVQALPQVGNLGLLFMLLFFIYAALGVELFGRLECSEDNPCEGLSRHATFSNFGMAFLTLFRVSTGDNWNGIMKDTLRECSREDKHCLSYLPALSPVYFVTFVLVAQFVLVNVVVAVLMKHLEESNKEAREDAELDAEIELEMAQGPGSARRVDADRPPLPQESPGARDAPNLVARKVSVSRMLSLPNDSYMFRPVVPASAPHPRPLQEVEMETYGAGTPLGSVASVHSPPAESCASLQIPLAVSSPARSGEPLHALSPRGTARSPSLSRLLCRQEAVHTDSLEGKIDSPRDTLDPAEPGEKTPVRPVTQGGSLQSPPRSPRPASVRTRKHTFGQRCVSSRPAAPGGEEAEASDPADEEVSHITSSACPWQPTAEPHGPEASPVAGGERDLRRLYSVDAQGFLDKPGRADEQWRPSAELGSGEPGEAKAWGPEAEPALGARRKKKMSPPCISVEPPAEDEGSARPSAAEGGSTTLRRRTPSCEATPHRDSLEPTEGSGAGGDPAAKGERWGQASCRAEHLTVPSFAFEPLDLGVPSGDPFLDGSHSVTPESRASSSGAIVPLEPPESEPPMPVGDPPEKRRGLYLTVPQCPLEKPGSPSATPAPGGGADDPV

N#Cc1cnc(Cn2ccc(NC(=O)Cc3ccc(C4(C(F)(F)F)CC4)cc3)n2)c(F)c1 [Example 389, N-[1-(5-Cyano-3-fluoro-pyridin-2-ylmethyl)-1H-pyrazol-3-yl]-2-[4-(1-trifluoromethyl-cyclopropyl)-phenyl]-acetamide]
IC50: 506 nM

CN(C)c1ccc(CC(=O)Nc2ccn(Cc3ccc(F)c(C(F)(F)F)c3)n2)cc1 [Example 23, 2-(4-Dimethylamino-phenyl)-N-[1-(4-fluoro-3-trifluoromethyl-benzyl)-1H-pyrazol-3-yl]-acetamide]
IC50: 6.4 nM

CC1(C)COc2cc(CC(=O)Nc3ccn(Cc4ccc(C#N)cn4)n3)ccc21 [Example 387, N-[1-(5-Cyano-pyridin-2-ylmethyl)-1H-pyrazol-3-yl]-2-(3,3-dimethyl-2,3-dihydro-benzofuran-6-yl)-acetamide]
IC50: 122 nM

CC(C)c1ccc(CC(=O)Nc2ccn(Cc3ccc(Br)cn3)n2)cc1 [Example 94, N-[1-(5-Bromo-pyridin-2-ylmethyl)-1H-pyrazol-3-yl]-2-(4-isopropyl-phenyl)-acetamide]
IC50: 8.3 nM

N#Cc1ccc(Cn2ccc(NC(=O)Cc3ccc(N4CCCC4)nc3)n2)cc1F [Example 275, N-[1-(4-Cyano-3-fluoro-benzyl)-1H-pyrazol-3-yl]-2-(6-pyrrolidin-1-yl-pyridin-3-yl)-acetamide]
IC50: 14 nM

Cc1cc(CC(=O)Nc2ccn(Cc3ccc(C#N)cn3)n2)cc(C)c1OCC(F)(F)F [Example 414, N-[1-(5-Cyano-pyridin-2-ylmethyl)-1H-pyrazol-3-yl]-2-[3,5-dimethyl-4-(2,2,2-trifluoro-ethoxy)-phenyl]-acetamide]
IC50: 6.4 nM

CN(C)c1ccc(CC(=O)Nc2ccn(Cc3ccc(C#N)cn3)n2)cc1 [Example 33, N-[1-(5-Cyano-pyridin-2-ylmethyl)-1H-pyrazol-3-yl]-2-(4-dimethylamino-phenyl)-acetamide]
IC50: 101 nM

N#Cc1cc(Cn2ccc(NC(=O)Cc3ccc(N4CCCC4)nc3)n2)ccc1F [Example 307, N-[1-(3-Cyano-4-fluoro-benzyl)-1H-pyrazol-3-yl]-2-(6-pyrrolidin-1-yl-pyridin-3-yl)-acetamide]
IC50: 42 nM

O=C(Cc1ccc(OCC2(F)COC2)cc1)Nc1ccn(Cc2ccc(F)c(F)c2)n1 [Example 245, N-[1-(3,4-Difluoro-benzyl)-1H-pyrazol-3-yl]-2-[4-(3-fluoro-oxetan-3-ylmethoxy)-phenyl]-acetamide]
IC50: 30 nM

COCCN(C)c1ccc(CC(=O)Nc2ccn(Cc3ccc(C#N)cc3)n2)cc1 [Example 127, N-[1-(4-Cyano-benzyl)-1H-pyrazol-3-yl]-2-{4-[(2-methoxy-ethyl)-methyl-amino]-phenyl}-acetamide]
IC50: 27 nM

O=C(Cc1ccc(N2CCC(F)(F)C2)nc1)Nc1ccn(Cc2ccc(F)cc2)n1 [Example 122, 2-[6-(3,3-Difluoro-pyrrolidin-1-yl)-pyridin-3-yl]-N-[1-(4-fluoro-benzyl)-1H-pyrazol-3-yl]-acetamide]
IC50: 19 nM

N#Cc1ccc(Cn2ccc(NC(=O)Cc3ccc(N4CCC(F)(F)C4)nc3)n2)cc1F [Example 294, N-[1-(4-Cyano-3-fluoro-benzyl)-1H-pyrazol-3-yl]-2-[6-(3,3-difluoro-pyrrolidin-1-yl)-pyridin-3-yl]-acetamide]
IC50: 22 nM

CC(C)c1cn(C)c2ccc(CC(=O)Nc3ccn(Cc4ccc(F)c(C#N)c4)n3)cc12 [Example 328, N-[1-(3-Cyano-4-fluoro-benzyl)-1H-pyrazol-3-yl]-2-(3-isopropyl-1-methyl-1H-indol-5-yl)-acetamide]
IC50: 33 nM

CCc1cc(CC(=O)Nc2ccn(Cc3ccc(F)c(C#N)n3)n2)ccc1OCC(F)(F)F [Example 412, N-[1-(6-Cyano-5-fluoro-pyridin-2-ylmethyl)-1H-pyrazol-3-yl]-2-[3-ethyl-4-(2,2,2-trifluoro-ethoxy)-phenyl]-acetamide]
IC50: 5.3 nM

CCc1ccc(Cn2ccc(NC(=O)Cc3ccc(C(C)C)cc3)n2)nc1 [Example 100, N-[1-(5-Ethyl-pyridin-2-ylmethyl)-1H-pyrazol-3-yl]-2-(4-isopropyl-phenyl)-acetamide]
IC50: 60 nM

O=C(Cc1ccc(C2(O)COC2)cc1)Nc1ccn(Cc2ccc(F)c(F)c2)n1 [Example 226, N-[1-(3,4-Difluoro-benzyl)-1H-pyrazol-3-yl]-2-[4-(3-hydroxy-oxetan-3-yl)-phenyl]-acetamide]
IC50: 25 nM

CN(C)c1ccc(CC(=O)Nc2ccn(Cc3ccc(Cl)cc3)n2)cn1 [Example 5, N-[1-(4-Chloro-benzyl)-1H-pyrazol-3-yl]-2-(6-dimethylamino-pyridin-3-yl)-acetamide]
IC50: 20 nM

CC(C)c1ccc(CC(=O)Nc2ccn(Cc3ccc(Cl)cc3)n2)cc1 [Example 1, N-[1-(4-Chloro-benzyl)-1H-pyrazol-3-yl]-2-(4-isopropyl-phenyl)-acetamide]
IC50: 14 nM

Cn1cc(C2CCC2)c2cc(CC(=O)Nc3ccn(Cc4ccc(C#N)cn4)n3)ccc21 [Example 323, N-[1-(5-Cyano-pyridin-2-ylmethyl)-1H-pyrazol-3-yl]-2-(3-cyclobutyl-1-methyl-1H-indol-5-yl)-acetamide]
IC50: 36 nM

Cc1cc(CC(=O)Nc2ccn(Cc3ccc(F)c(C#N)n3)n2)cnc1OCC(F)(F)F [Example 418, N-[1-(6-Cyano-5-fluoro-pyridin-2-ylmethyl)-1H-pyrazol-3-yl]-2-[5-methyl-6-(2,2,2-trifluoro-ethoxy)-pyridin-3-yl]-acetamide]
IC50: 94 nM

N#Cc1ccc(Cn2ccc(NC(=O)Cc3ccc(C4(O)CC4)cc3)n2)nc1 [Example 356, N-[1-(5-Cyano-pyridin-2-ylmethyl)-1H-pyrazol-3-yl]-2-[4-(1-hydroxy-cyclopropyl)-phenyl]-acetamide]
IC50: 327 nM

N#Cc1ccc(Cn2ccc(NC(=O)Cc3ccc(OCC4CC(F)(F)C4)cc3)n2)cc1 [Example 299, N-[1-(4-Cyano-benzyl)-1H-pyrazol-3-yl]-2-[4-(3,3-difluoro-cyclobutylmethoxy)-phenyl]-acetamide]
IC50: 37 nM

COC1(c2ccc(CC(=O)Nc3ccn(Cc4ccc(F)c(F)c4)n3)cc2)COC1 [Example 231, N-[1-(3,4-Difluoro-benzyl)-1H-pyrazol-3-yl]-2-[4-(3-methoxy-oxetan-3-yl)-phenyl]-acetamide]
IC50: 21 nM

O=C(Cc1ccc(OCC2COC2)cc1)Nc1ccn(Cc2ccc(F)c(F)c2)n1 [Example 242, N-[1-(3,4-Difluoro-benzyl)-1H-pyrazol-3-yl]-2-[4-(oxetan-3-ylmethoxy)-phenyl]-acetamide]
IC50: 39 nM

N#Cc1ccc(Cn2ccc(NC(=O)Cc3ccc(N4CC(F)(F)C4)nc3)n2)nc1 [Example 142, N-[1-(5-Cyano-pyridin-2-ylmethyl)-1H-pyrazol-3-yl]-2-[6-(3,3-difluoro-azetidin-1-yl)-pyridin-3-yl]-acetamide]
IC50: 185 nM

CC(C)Cc1nc(Cn2ccc(NC(=O)Cc3ccc(C(C)C)cc3)n2)ccc1C#N [Example 134, N-[1-(5-Cyano-6-isobutyl-pyridin-2-ylmethyl)-1H-pyrazol-3-yl]-2-(4-isopropyl-phenyl)-acetamide]
IC50: 428 nM

Cc1cc(Cn2ccc(NC(=O)Cc3ccc(C(C)C)cc3)n2)ncc1C#N [Example 169, N-[1-(5-Cyano-4-methyl-pyridin-2-ylmethyl)-1H-pyrazol-3-yl]-2-(4-isopropyl-phenyl)-acetamide]
IC50: 104 nM

N#Cc1ccc(Cn2ccc(NC(=O)Cc3ccc(N4CCC(F)(F)C4)nc3)n2)cc1 [Example 121, N-[1-(4-Cyano-benzyl)-1H-pyrazol-3-yl]-2-[6-(3,3-difluoro-pyrrolidin-1-yl)-pyridin-3-yl]-acetamide]
IC50: 68 nM

COC1(c2ccc(CC(=O)Nc3ccn(Cc4ccc(F)c(F)c4)n3)cn2)COC1 [Example 258, N-[1-(3,4-Difluoro-benzyl)-1H-pyrazol-3-yl]-2-[6-(3-methoxy-oxetan-3-yl)-pyridin-3-yl]-acetamide]
IC50: 934 nM

Cc1ccc(Cn2ccc(NC(=O)Cc3ccc(N4CCCC4)nc3)n2)nc1C#N [Example 373, N-[1-(6-Cyano-5-methyl-pyridin-2-ylmethyl)-1H-pyrazol-3-yl]-2-(6-pyrrolidin-1-yl-pyridin-3-yl)-acetamide]
IC50: 349 nM

CN1C(=O)COc2cc(CC(=O)Nc3ccn(Cc4ccc(F)c(F)c4)n3)ccc21 [Example 209, N-[1-(3,4-Difluoro-benzyl)-1H-pyrazol-3-yl]-2-(4-methyl-3-oxo-3,4-dihydro-2H-benzo[1,4]oxazin-7-yl)-acetamide]
IC50: 53 nM

N#Cc1cc(Cn2ccc(NC(=O)Cc3ccc(OCC4(F)COC4)cc3)n2)ccc1F [Example 267, N-[1-(3-Cyano-4-fluoro-benzyl)-1H-pyrazol-3-yl]-2-[4-(3-fluoro-oxetan-3-ylmethoxy)-phenyl]-acetamide]
IC50: 90 nM

COCCN(C)c1ccc(CC(=O)Nc2ccn(Cc3ccc(OC)cc3)n2)cn1 [Example 183, N-[1-(4-Methoxy-benzyl)-1H-pyrazol-3-yl]-2-{6-[(2-methoxy-ethyl)-methyl-amino]-pyridin-3-yl}-acetamide]
IC50: 530 nM

CCN(CC)c1ccc(CC(=O)Nc2ccn(Cc3ccc(F)cc3)n2)cn1 [Example 190, 2-(6-Diethylamino-pyridin-3-yl)-N-[1-(4-fluoro-benzyl)-1H-pyrazol-3-yl]-acetamide]
IC50: 21 nM

O=C(Cc1ccc(N2CCCC2)nc1)Nc1ccn(Cc2ccc(F)cc2)n1 [Example 177, N-[1-(4-Fluoro-benzyl)-1H-pyrazol-3-yl]-2-(6-pyrrolidin-1-yl-pyridin-3-yl)-acetamide]
IC50: 18 nM

N#Cc1ccc(Cn2ccc(NC(=O)Cc3ccc(C4(C#N)CC4)c(C(F)(F)F)c3)n2)nc1 [Example 403, 2-[4-(1-Cyano-cyclopropyl)-3-trifluoromethyl-phenyl]-N-[1-(5-cyano-pyridin-2-ylmethyl)-1H-pyrazol-3-yl]-acetamide]
IC50: 97 nM

Cn1ncc2cc(CC(=O)Nc3ccn(Cc4ccc(C#N)cn4)n3)ccc21 [Example 249, N-[1-(5-Cyano-pyridin-2-ylmethyl)-1H-pyrazol-3-yl]-2-(1-methyl-1H-indazol-5-yl)-acetamide]
IC50: 295 nM
